Target: T1, HIV-1 integrase (HIV-1 M:B_HXB2R, UniProt P04585)
T1 construct: gene gag-pol; WT integrase, cut from Gag-Pol polyprotein
Experiment: ELISA overall integration assay, biotin / digoxigenin labelled oligonucleotides
Type: biochemical
Details: overall integration reaction; 10 mM MgCl2, 5 mM DTT, 20 mM HEPES pH 7.5, 5% PEG, 15% DMSO, 37 °C, 1 h
From the text: ELISA overall integration assay, biotin / digoxigenin labelled oligonucleotides on HIV-1 integrase

| Compound | IC50 ^a (μM/ml) |
| --- | --- |
| Cc1cc(C)nc(NS(=O)(=O)c2ccc(N=C3C(=O)N(C(=O)c4ccccc4)c4ccc(Br)cc43)cc2)n1 [SPIII-5Br-BZ] | > 250 μM/ml |
| CC(=O)N1C(=O)C(=Nc2ccc(S(=O)(=O)Nc3nc(C)cc(C)n3)cc2)c2cc(C)ccc21 [SPIII-5Me-AC, 4-(1-acetyl-5-methyl-2-oxoindolin-3-ylideneamino)-N-(4,6-dimethylpyrimidin-2-yl)benzenesulfonamide] | 53.62±11.67 μM/ml |
| CC(=O)N1C(=O)C(=Nc2ccc(S(=O)(=O)Nc3nc(C)cc(C)n3)cc2)c2cc(Br)ccc21 [SPIII-5Br-AC] | > 250 μM/ml |

Reference: publication PMC3040873, “Design, Synthesis and antiHIV activity of Novel Isatine-Sulphonamides” (Indian Journal of Pharmaceutical Sciences, 2008)
